Measurements from ChEMBL document CHEMBL1133244, “Solid-phase synthesis of an arylsulfone hydroxamate library” (Bioorg Med Chem Lett, 2000).
pIC50, pKi: −log10 of the molar value. Activity calls are given as the source filed them. No cut-off for these calls is given here.

How the values were obtained:
[1] = target: T1, Interstitial collagenase (Homo sapiens, UniProt P03956); assay: In vitro inhibition of human recombinant Matrix metalloprotease-1.
T1 sequence (P03956 whole entry): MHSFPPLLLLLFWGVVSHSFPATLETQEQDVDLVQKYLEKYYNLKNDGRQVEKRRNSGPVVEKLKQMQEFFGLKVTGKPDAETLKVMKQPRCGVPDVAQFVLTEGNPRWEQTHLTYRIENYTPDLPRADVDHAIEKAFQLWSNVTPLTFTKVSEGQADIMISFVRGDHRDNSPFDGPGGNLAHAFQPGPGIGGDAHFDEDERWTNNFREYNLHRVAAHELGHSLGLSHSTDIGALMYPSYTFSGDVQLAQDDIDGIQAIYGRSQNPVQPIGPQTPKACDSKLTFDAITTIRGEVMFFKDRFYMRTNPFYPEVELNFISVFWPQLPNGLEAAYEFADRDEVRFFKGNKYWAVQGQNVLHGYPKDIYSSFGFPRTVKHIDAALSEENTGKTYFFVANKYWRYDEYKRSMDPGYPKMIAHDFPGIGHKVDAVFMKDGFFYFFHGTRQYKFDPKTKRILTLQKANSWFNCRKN

[2] = target: Disintegrin and metalloproteinase domain-containing protein 17 (Homo sapiens) (UniProt P78536); assay: Inhibitory activity against TACE
[3] = In vitro for the inhibition of TNF alpha release by human peripheral blood monocytes (PBMs); format: functional
[4] = target: Phosphodiesterase 4 (Cavia porcellus); assay: Phosphodiesterase 4 inhibitory activity measured against guinea pig macrophage homogenate
[5] = target: T2, 72 kDa type IV collagenase (Homo sapiens, UniProt P08253)
Description: In vitro inhibition of human recombinant Matrix metalloprotease-2.

[6] = target: T3, Stromelysin-1 (Homo sapiens, UniProt P08254); assay: In vitro inhibition of human recombinant Matrix metalloprotease-3.
[7] = target: T2, 72 kDa type IV collagenase; assay: Inhibitory activity against recombinant matrix metalloprotease-2
[8] = target: T1, Interstitial collagenase; assay: Inhibition of Matrix metalloprotease-1
[9] = target: T3, Stromelysin-1; assay: Inhibitory activity against recombinant matrix metalloprotease-3

Chain of Disintegrin and metalloproteinase domain-containing protein 17 (Homo sapiens) (P78536 whole entry, the tested form may be a part): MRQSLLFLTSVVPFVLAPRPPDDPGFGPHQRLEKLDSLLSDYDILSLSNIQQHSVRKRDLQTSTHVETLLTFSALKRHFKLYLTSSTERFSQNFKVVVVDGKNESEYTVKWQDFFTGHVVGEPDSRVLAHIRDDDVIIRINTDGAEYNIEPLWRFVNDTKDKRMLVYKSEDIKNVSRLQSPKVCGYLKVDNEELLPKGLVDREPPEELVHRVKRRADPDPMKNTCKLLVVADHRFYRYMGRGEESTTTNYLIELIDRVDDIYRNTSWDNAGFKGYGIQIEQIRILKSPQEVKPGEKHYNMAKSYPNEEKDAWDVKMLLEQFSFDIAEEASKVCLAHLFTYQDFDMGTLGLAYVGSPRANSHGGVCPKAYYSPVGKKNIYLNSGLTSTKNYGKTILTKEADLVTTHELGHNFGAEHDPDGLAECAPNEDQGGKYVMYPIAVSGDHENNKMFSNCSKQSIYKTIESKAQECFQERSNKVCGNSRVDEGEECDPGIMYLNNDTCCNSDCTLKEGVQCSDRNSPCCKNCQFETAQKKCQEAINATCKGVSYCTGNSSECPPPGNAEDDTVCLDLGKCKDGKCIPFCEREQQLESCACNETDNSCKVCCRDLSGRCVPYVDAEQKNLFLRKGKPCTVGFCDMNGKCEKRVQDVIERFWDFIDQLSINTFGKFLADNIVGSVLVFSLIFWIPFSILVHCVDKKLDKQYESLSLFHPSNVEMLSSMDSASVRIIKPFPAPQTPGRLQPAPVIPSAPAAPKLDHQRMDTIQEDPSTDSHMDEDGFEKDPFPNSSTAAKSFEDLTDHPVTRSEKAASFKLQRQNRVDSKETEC
T2 sequence (P08253 whole entry): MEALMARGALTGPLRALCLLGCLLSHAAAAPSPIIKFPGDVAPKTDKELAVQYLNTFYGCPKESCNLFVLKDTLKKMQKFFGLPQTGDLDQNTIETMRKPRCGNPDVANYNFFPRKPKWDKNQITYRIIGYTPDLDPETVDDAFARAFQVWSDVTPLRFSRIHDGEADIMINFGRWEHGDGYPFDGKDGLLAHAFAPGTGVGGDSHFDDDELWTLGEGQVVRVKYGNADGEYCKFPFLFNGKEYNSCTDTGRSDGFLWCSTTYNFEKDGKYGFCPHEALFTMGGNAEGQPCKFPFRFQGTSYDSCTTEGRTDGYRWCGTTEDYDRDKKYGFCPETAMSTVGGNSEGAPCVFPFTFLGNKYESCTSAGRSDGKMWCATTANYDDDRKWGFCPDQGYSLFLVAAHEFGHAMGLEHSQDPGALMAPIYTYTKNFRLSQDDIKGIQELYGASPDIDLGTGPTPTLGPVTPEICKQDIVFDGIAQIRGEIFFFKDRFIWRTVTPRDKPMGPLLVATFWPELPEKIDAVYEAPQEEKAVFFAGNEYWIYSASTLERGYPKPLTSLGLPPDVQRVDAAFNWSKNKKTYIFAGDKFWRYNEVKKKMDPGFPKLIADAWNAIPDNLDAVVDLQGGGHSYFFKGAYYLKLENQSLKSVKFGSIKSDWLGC
T3 sequence (P08254 whole entry): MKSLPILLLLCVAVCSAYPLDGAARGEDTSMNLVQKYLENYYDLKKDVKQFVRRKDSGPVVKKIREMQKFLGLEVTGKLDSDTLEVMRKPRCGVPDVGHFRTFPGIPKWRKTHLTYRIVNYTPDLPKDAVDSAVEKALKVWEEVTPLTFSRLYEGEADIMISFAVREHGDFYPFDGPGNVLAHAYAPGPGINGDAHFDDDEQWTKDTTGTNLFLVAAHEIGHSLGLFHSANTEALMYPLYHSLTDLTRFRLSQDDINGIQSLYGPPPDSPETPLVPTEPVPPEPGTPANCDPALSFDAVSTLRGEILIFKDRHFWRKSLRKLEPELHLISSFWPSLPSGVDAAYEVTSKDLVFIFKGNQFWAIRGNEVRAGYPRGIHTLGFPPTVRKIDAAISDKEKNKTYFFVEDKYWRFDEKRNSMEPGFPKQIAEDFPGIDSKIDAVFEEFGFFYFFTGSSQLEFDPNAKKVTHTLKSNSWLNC

With COc1ccc(S(=O)(=O)C(CC(=O)NO)c2ccc(-c3ccccc3)cc2)cc1 (centres undefined) as the compound, how does the pKi [1] read?
The pKi was less than 5.00.

What about the Activity [2] of the same compound?
Its Activity is “inactive”.

And the pIC50 [3]?
Its pIC50 is 5.36.

And the IC50 [4]?
The IC50 was 3.6 µM.

What about the pKi [5] of the same compound?
The pKi was less than 5.00.

What about the pKi [6] of the same compound?
Its pKi is less than 5.00.

With COc1ccc(S(=O)(=O)C(CCCCc2ccc3c(c2)OCO3)CC(=O)NO)cc1OC1CCCC1 (centres undefined) as the compound, how does the pIC50 [7] read?
The pIC50 was less than 5.00.

What about the pIC50 [8] of the same compound?
Its pIC50 is less than 5.00.

What about the IC50 [4] of the same compound?
The IC50 was 0.011 µM.

And the pIC50 [9]?
The pIC50 was less than 5.00.

With CCCCC(CC)C(CC(=O)NO)S(=O)(=O)c1ccc(OC)cc1 (centres undefined) as the compound, how does the pKi [1] read?
The pKi was 6.45.

What about the Activity [2] of the same compound?
Its Activity is “inactive”.

And the pIC50 [3]?
Its pIC50 is less than 5.00.

What about the pKi [5] of the same compound?
The pKi was 8.40.

And the pKi [6]?
Its pKi is 6.74.

With COc1ccc(S(=O)(=O)C(CCCCc2ccccc2)CC(=O)NO)cc1OC (centres undefined) as the compound, how does the pIC50 [7] read?
Its pIC50 is less than 5.00.

What about the pIC50 [8] of the same compound?
The pIC50 was less than 5.00.

What about the pIC50 [9] of the same compound?
Its pIC50 is less than 5.00.

What does the source list for COc1ccc(S(=O)(=O)C(CC(=O)NO)c2ccc(Oc3ccccc3)cc2)cc1 (centres undefined)?
pKi [1]: < 5.00; Activity [2]: inactive; pIC50 [3]: 6.14; IC50 [4]: 0.28 µM; pKi [5]: < 5.00; pKi [6]: < 5.00

With CCCCCCC(CC(=O)NO)S(=O)(=O)c1ccc(OC)cc1 (centres undefined) as the compound, how does the pKi [1] read?
Its pKi is 5.02.

And the Activity [2]?
The Activity was “inactive”.

And the pIC50 [3]?
Its pIC50 is 5.85.

What about the pKi [5] of the same compound?
Its pKi is 7.51.

And the pKi [6]?
Its pKi is 6.13.

With COC(=O)c1ccc(C(CC(=O)NO)S(=O)(=O)c2ccc(OC)cc2)cc1 (centres undefined) as the compound, how does the pKi [1] read?
Its pKi is 5.72.

And the Activity [2]?
The Activity was “inactive”.

And the pIC50 [3]?
Its pIC50 is less than 5.00.

What about the pKi [5] of the same compound?
Its pKi is 7.06.

And the pKi [6]?
The pKi was 5.35.

With COc1ccc(S(=O)(=O)C(CCCCc2ccccc2)CC(=O)NO)cc1OC1CCCC1 (centres undefined) as the compound, how does the pIC50 [7] read?
The pIC50 was less than 5.00.

And the pIC50 [8]?
Its pIC50 is less than 5.00.

And the IC50 [4]?
The IC50 was 0.0069 µM.

And the pIC50 [9]?
The pIC50 was less than 5.00.

With COc1ccc(S(=O)(=O)C(CC(=O)NO)C(C)c2ccccc2)cc1 (centres undefined) as the compound, how does the pKi [1] read?
Its pKi is 5.77.

And the Activity [2]?
Its Activity is “inactive”.

What about the pIC50 [3] of the same compound?
The pIC50 was less than 5.00.

And the pKi [5]?
Its pKi is 8.10.

And the pKi [6]?
Its pKi is 6.52.

With COc1ccc(S(=O)(=O)C(CC(=O)NO)C2CCCCC2)cc1 (centres undefined) as the compound, how does the pKi [1] read?
The pKi was 5.77.

What about the Activity [2] of the same compound?
The Activity was “inactive”.

And the pIC50 [3]?
Its pIC50 is less than 5.00.

What about the pKi [5] of the same compound?
The pKi was 8.10.

And the pKi [6]?
The pKi was 7.07.

With COc1ccc(S(=O)(=O)C(CC(=O)NO)c2ccc(OCc3ccccc3)cc2)cc1 (centres undefined) as the compound, how does the pKi [1] read?
The pKi was less than 5.00.

And the Activity [2]?
Its Activity is “inactive”.

And the pIC50 [3]?
Its pIC50 is 5.92.

And the IC50 [4]?
The IC50 was 0.52 µM.

And the pKi [5]?
The pKi was less than 5.00.

What about the pKi [6] of the same compound?
Its pKi is less than 5.00.

What does the source list for COc1ccc(S(=O)(=O)C(CCCc2ccccc2)CC(=O)NO)cc1 (centres undefined)?
pKi [1]: 5.59; Activity [2]: inactive; pIC50 [3]: 5.30; pKi [5]: 7.36; pKi [6]: 5.86
